From paper PMC3951324, “Side Chain Hydrophobicity Modulates Therapeutic Activity and Membrane Selectivity of Antimicrobial Peptide Mastoparan-X” (PLoS ONE, 2014)
Ends that are not written are not given here.

System: human red blood cells (RBCs)
Assay: Haemolysis assay
Assay type: cell-based
Source text: All Fmoc (9H-fluoren-9-yl-methyloxycarbonyl) L-amino acids and HATU (1-[Bis(dimethylamino)methylene]-1H-1,2,3-triazolo[4,5-b]pyridinium 3-oxid hexafluorophosphate, N-[(Dimethylamino)-1H-1,2,3-triazolo-[4,5-b]pyridin-1-ylmethylene]-N-methylmethanaminium hexafluorophosphate N-oxide) were purchased from GLS China (GL Biochem, Shanghai, China). Fmoc-2-amino-decanoic acid was obtained from Watanabe Chemical Industries, Ltd (Hiroshima, Japan). Lys and Trp were side-chain-protected as tert-butoxycarbonyl, Asn was sidechain protected with trityl. Tentagel resin was purchased from NovaBiochem (Merck, Darmstadt, Germany). TFA (trifluoroacetic acid), TIS (triisopropylsilane), HEPES (N-(2-hydroxyethyl)piperazine-N-(2-ethanesulfonic acid)), 2,4,6-collidine and pyrene were purchased from Sigma-Aldrich (Brøndby, Denmark). Pyridine, sodium hydroxide pellets and sodium chloride was purchased from J.T. Baker Chemicals (Phillipsburg, NJ, USA). Filter supports and Hamilton extrusion syringes, POPG (1-palmitoyl-2-oleoyl-sn-glycero-3-[phospho-rac-(1-glycerol)] sodium salt), and POPC (1-palmitoyl-2-oleoyl-sn-glycero-3-phosphocholine) were purchased from Avanti Polar Lipids (Alabaster, AL). All compounds were used without further purification. Membrane filters for extrusion (100 nm pore size, polycarbonate) were purchased from Whatman (Maidstone, UK). Cuvettes (4×10 mm, quartz, Suprasil) were purchased from Hellma (Müllheim, Germany). Purified human erythrocytes for the haemolysis studies were provided by Bioneer (Hørsholm, Denmark), and were stored at 4°C for a maximum of three days before use.
The assay was conducted as described in Etzerodt et al..

INWKGIAAMAKKLL-NH2 [MPX, mastoparan X, reference compound]
% haemolysis (human RBCs, 50 µM peptide): 15%
H5, concentration at which 5% haemolysis has been obtained (purified human erythrocytes, assay as in Etzerodt et al. [14]): 18 ± 2 µM
